Laboratory results: article PMC11477298, “Small Molecules Inducing Autophagic Degradation of Expanded Polyglutamine Protein through Interaction with Both Mutant ATXN3 and LC3” (International Journal of Molecular Sciences, 2024)

What was measured:
[1] = tested on: ATXN3-Q75-GFP SH-SY5Y cells; test: High-content neurite outgrowth assay; format: cell-based, human; conditions: compound 10 µM, range over the four named compounds; for Neurite branch: untreated 1.16; for Neurite process: untreated 2.41; for Neurite length: untreated 23.2 µm
Experimental: ATXN3-Q75-GFP SH-SY5Y cells (5 × 10^4/well) were plated onto 24-well plates, with retinoic acid addition (10 µM; Sigma-Aldrich) on day 1 to initiate neuronal differentiation. On day 2, the cells were pretreated with disaccharide trehalose (10 mM, as a positive control) or the studied compounds (10 μM) for 8 h, followed by the addition of doxycycline (5 μg/mL, Sigma-Aldrich) to induce ATXN3-Q75-GFP expression. The cells were kept in the medium containing retinoic acid, the test compound, and doxycycline for 6 days, with the culture medium changed on day 5. ATXN3-Q75 aggregation and neurite outgrowth assays were performed on day 8 using a high-content imaging system (ImageXpress Micro Confocal; Molecular Devices).
For the aggregation assay, cells were stained with Hoechst 33342 (0.1 µg/mL; Sigma-Aldrich) at 37 °C for 30 min. Images of the cells were automatically obtained at excitation/emission wavelengths of 482/536 nm (FITC [fluorescein isothiocyanate] filter) for enhanced GFP and 377/447 nm (DAPI [4′,6-diamidino-2-phenylindole] filter) for nucleus counting. ATXN3-Q75 aggregation was determined by Transfluor technology based on GFP fluorescence intensity. For the neurite outgrowth assay, cells were fixed with 4% paraformaldehyde for 30 min, permeabilized with 0.1% Triton X-100 for 10 min, and blocked by non-specific binding with 3% bovine serum albumin for 20 min. The primary TUBB3 (neuronal class III β-tubulin) antibody (1:1000; BioLegend #802001, San Diego, CA, USA) was used to stain cells at 4 °C overnight, followed by Alexa Fluor 555-donkey anti-rabbit IgG secondary antibody (1:1000; Invitrogen #A-31572) staining for 2 h at room temperature. Nuclei were detected using DAPI (0.1 μg/mL; Sigma-Aldrich). Cell images were obtained at excitation/emission wavelengths of 531/593 nm (TRITC [tetramethylrhodamine] filter) for stained neurites and 377/447 nm (DAPI filter) for nuclei. To quantify neurite outgrowth, microscopic images were segmented with multi-colored masks to assign each outgrowth to a cell body for quantification. Neurite total length (μm) and numbers of process (primary neurites originating from neuronal cell body) and branch (secondary neurites extended from primary neurites) were analyzed (Neurite Outgrowth Application Module; Molecular Devices). In general, […] in each biological replicate were analyzed.

[2] = tested on: 293T cells co-expressing ATXN3-Q75-VC and VN-LC3; test: BiFC high-content analysis of transfected 293T cells; format: cell-based, human; conditions: compound 10 μM; 24 h post-induction; untreated = 100%; range over the three named compounds
From the text: pTRE3G-BI-VN-LC3-ATXN3-Q14−75-VC was constructed by subcloning the ATXN3-Q14−75-VC KpnI-XbaI fragment and VN-LC3 BamHI fragment of the aforementioned plasmids into the corresponding restriction sites in multiple cloning site (MCS)-2 (ATXN3-Q14−75-VC fragment) or MCS-1 (VN-LC3 fragment) of the pTRE3G-BI vector (Clontech, Mountain View, CA, USA). The resulting plasmid allows the simultaneous expression of ATXN3-Q14−75-VC and VN-LC3 proteins from a bidirectional, Tet-responsive promoter that binds the Tet-On 3G trans-activator protein in the presence of doxycycline and co-transfected pCMV-Tet3G. Next, 293T cells (2 × 10^5) were plated onto 6-well plates on day 1. Upon the next day, the constructed pTRE3G-BI-VN-LC3-ATXN3-Q 14−75-VC (2 μg) together with pCMV-Tet3G (0.5 μg) were transiently co-transfected into cells using GenJet in vitro DNA transfection reagent (SignaGen Laboratories #SL100488, Rockville, MD, USA). Doxycycline (1 μg/mL) was added to cells to induce ATXN3-Q14−75-VC and VN-LC3 expression on day 3. Cell lysates were prepared at 24 h post-induction and analyzed by Western blot using ataxin-3 (1:1000; Invitrogen #PA5-26251) or LC3 (1:2000; MBL International #PM036) antibody. In addition, at 0, 6, 9, 12, and 24 h post-transfection, the pTRE3G-BI-VN-LC3-ATXN3-Q75-VC transfected cells were fixed, permeabilized, blocked, and stained with 5TF1-1C2 (1:1000; Merck #MAB1574) antibody at 4 °C overnight, followed by Cy5-donkey anti-mouse IgG secondary antibody (1:1000; Jackson ImmunoResearch #715-175-151) staining for 2 h at room temperature. Nuclei were counterstained with DAPI (0.1 μg/mL; Sigma-Aldrich). Cell images were obtained at excitation/emission wavelengths of 482/536 nm (FITC filter) for Venus, 631/692 nm (Cy5 filter) for stained expanded ATXN3-Q75 protein, and 377/447 nm (DAPI filter) for detecting nuclei (ImageXpress Micro Confocal; Molecular Devices).
On day 3, doxycycline (1 μg/mL) was added to the aforementioned transfected 293T cells along with NC009-1, -2, or -6 or LM-031 (10 μM). At 24 h post-transfection, the transfected cells were fixed, permeabilized, blocked, and stained with 5TF1-1C2 antibody, as described. After nucleus staining (DAPI, 0.1 μg/mL), the captured images were analyzed as described for overlapped ATXN3-Q75 and Venus signals and the green fluorescence of Venus-tagged LC3 puncta using the high-content imaging system, as described.

Row | Compound | Neurite branch [1] | Neurite process [1] | Neurite length [1] | Green fluorescence of Venus-tagged LC3 puncta [2] | Overlapping of green (Venus) and red (ATXN3-Q75) signals [2]
1 | O=C(c1ccccc1)c1cc2c(O)cccc2oc1=O [LM-031] | 1.34–1.37 | 2.55–2.57 | 26.1–26.9 µm | 121–122% | 117–119%
2 | CC(=O)/C(=C\c1ccccc1[N+](=O)[O-])Cc1c[nH]c2ccccc12 [NC009-1] | 1.34–1.37 | 2.55–2.57 | 26.1–26.9 µm | 121–122% | 117–119%
3 | CC(=O)/C(=C\c1ccccc1[N+](=O)[O-])Cc1c(C)[nH]c2ccccc12 [NC009-2] | 1.34–1.37 | 2.55–2.57 | 26.1–26.9 µm | 121–122% | 117–119%
